In publication PMC12040169 (PLOS Biology, 2025) one finds viability data, which are given here for 55 molecules.

A short description of the data set: in vitro. The following applies: human, hela cells, % viability.

As for `Cc1nc(SCc2ccccc2)nc(O)c1CC(=O)O` [CBK264203], the viability at 28.5 h, 10 µM was found to be 96.8%. On to `CCCCc1cc(=O)oc2cc(OCC(=O)O)ccc12` [CBK264205], for which the viability at 28.5 h, 10 µM was 99.4%.

As to `COc1cccc(OCC(=O)Nc2ccc(Cl)cc2C(=O)O)c1` [CBK264208], the viability at 28.5 h, 10 µM came out at 105%.

For the molecule `O=C(O)C1CC=CCC1C(=O)NCc1ccc2c(c1)OCO2` (stereo not shown) [CBK264209], the viability at 28.5 h, 10 µM is 96.4%. Regarding `N=c1c2c3c(sc2ncn1CCCn1ccnc1)CCCC3` [CBK264211], the viability at 28.5 h, 10 µM is 95.5%.

For `O=C(CSc1nnc(-c2cccc(Br)c2)o1)Nc1cccc([N+](=O)[O-])c1` [CBK264212], the viability at 28.5 h, 10 µM amounted to 101%. Regarding `O=C(O)CCSc1nc2ccccc2n1-c1ccccc1` [CBK264215], the viability at 28.5 h, 10 µM came out at 100%. Still for that read-out and setting: as for `COc1ccc(C)cc1NC(=O)CCN1CCN(C)CC1` [CBK264216], the figure is 102%; as for `O=C(CSc1ccc(Cl)cc1)Nc1cc(Cl)ccc1C(=O)O` [CBK264217], 115%. Regarding `COc1ccccc1N1CCN(CCC(=O)Nc2ccc(Br)c(C)c2)CC1` [CBK264218], the viability at 28.5 h, 10 µM turned out to be 93.6%. As for `COc1cc(CN2CCN(Cc3ccccc3F)CC2)cc(OC)c1O` [CBK264219], the viability at 28.5 h, 10 µM stood at 95.9%. On to `CCOC(=O)N1CCN(CCC(=O)Nc2ccc3c(c2)CCC3)CC1` [CBK264220], for which the viability at 28.5 h, 10 µM is 111%. On the same count and under the same terms, under `Cc1cccc(OCC(=O)N2CCN(S(=O)(=O)c3ccc([N+](=O)[O-])cc3)CC2)c1` [CBK264221] stands 89.9%. As for `O=C(/C=C/c1c[nH]c2ccccc12)c1ccc(C(=O)/C=C/c2c[nH]c3ccccc23)cc1` [CBK264224], the viability at 28.5 h, 10 µM came out at 106%.

As for `CC(C)OC(=O)COc1ccc2c(=O)c(Oc3ccccc3Br)coc2c1` [CBK264226], the viability at 28.5 h, 10 µM was found to be 94%. Same read-out and setting: as for `O=C(c1cccnc1)N1CCN(S(=O)(=O)c2ccccc2[N+](=O)[O-])CC1` [CBK264227], the figure is 97%.

For `O=C(O)CCSc1nc(-c2ccccc2)c(-c2ccccc2)[nH]1` [CBK264228], the viability at 28.5 h, 10 µM is 109%. On the same count and under the same terms, under `O=[N+]([O-])c1ccccc1S(=O)(=O)N1CCN(S(=O)(=O)Cc2ccccc2)CC1` [CBK264230] stands 96.9%; under `Cc1ccc(C)c(NC(=O)C(Cc2ccccc2)N2C(=O)c3cc(Cl)c(Cl)cc3C2=O)c1` (stereo not shown) [CBK264232], 109%; under `CC(=O)Nc1ccc(S(=O)(=O)N2CCN(C(=O)COc3ccc(Br)cc3)CC2)cc1` [CBK264234], 94.1%.

`O=C(CCCOc1ccc(Cl)cc1Cl)Nc1c[nH]c(=O)[nH]c1=O` [CBK264235]: the viability at 28.5 h, 10 µM is 113%.

Take `Cc1ccc(NC(=O)C(=O)NCCCn2ccnc2)cc1Cl` [CBK264238]: the viability at 28.5 h, 10 µM is 92.2%. On the same count and under the same terms, under `CCCS(=O)(=O)N1CCN(C(=O)c2cccnc2)CC1` [CBK264239] stands 93.8%. Regarding `CC(CCc1ccccc1)N1CCN(S(=O)(=O)c2ccc3ccccc3c2)CC1` (stereo not shown) [CBK264240], the viability at 28.5 h, 10 µM is 104%. As to `O=C(CN1CCN(Cc2ccc3c(c2)OCO3)CC1)Nc1ccc(Cl)cc1C(=O)c1ccccc1` [CBK264241], the viability at 28.5 h, 10 µM was determined as 103%.

Consider `Cc1ccc(S(=O)(=O)N2CCN(Cc3cc(Br)ccc3O)CC2)cc1` [CBK264242], for which the viability at 28.5 h, 10 µM stood at 98.5%. On to `O=C(CN1CCOCC1)Nc1ccc(NC(=O)CN2CCOCC2)c(Cl)c1` [CBK264243], for which the viability at 28.5 h, 10 µM turned out to be 112%. Turning to `COc1ccc(Nc2nnc(-c3ccc(C(N)=O)cc3)c3ccccc23)cc1` [CBK264246], the viability at 28.5 h, 10 µM was found to be 92.7%. The same measure, in the same setting: as for `CC1CCN(Cn2nc(COc3ccccc3)n(-c3ccccc3)c2=S)CC1` [CBK264247], the figure is 97.3%. On the same count and under the same terms, as for `CCn1c2ccccc2c2cc(CN3CCN(S(=O)(=O)c4ccc(NC(C)=O)cc4)CC3)ccc21` [CBK264248], the figure is 94.1%; as for `Cc1ccc(-c2nc(Nc3ccc(Br)cc3)sc2CC(=O)O)cc1` [CBK264251], 101%.

For the molecule `COc1cc(C=O)ccc1OC(=O)c1cn(-c2ccccc2)nc1-c1cccnc1` [CBK264255], the viability at 28.5 h, 10 µM is 89.6%. For `O=C(O)c1ccc(CNC(=O)c2ccc3c(c2)C(=O)N(CC2CCCO2)C3=O)cc1` (stereo not shown) [CBK264256], the viability at 28.5 h, 10 µM came to 98.4%. As for `O=C1NC(=S)NC(=O)C1=Cc1ccc(OCc2ccccc2F)c(Br)c1` [CBK264257], the viability at 28.5 h, 10 µM (bulk resorufin, single well) is 97.7%. Regarding `Cc1ccc(OCC(=O)N2CCN(S(=O)(=O)c3ccccc3[N+](=O)[O-])CC2)cc1` [CBK264260], the viability at 28.5 h, 10 µM was 98.5%. As to `O=C(CCN1CCN(CCO)CC1)Nc1ccc2c(c1)CCC2` [CBK264262C], the viability at 28.5 h, 10 µM turned out to be 93.2%. On to `COc1ccc(C(NC(=O)C2CC=CCC2C(=O)O)c2ccccc2)cc1` (stereo not shown) [CBK264264], for which the viability at 28.5 h, 10 µM came to 91.6%.

On to `CC(=O)Nc1ccc(S(=O)(=O)N2CCN(C(=O)COc3ccc(C)cc3)CC2)cc1` [CBK264268], for which the viability at 28.5 h, 10 µM amounted to 91%. For `O=C(COc1ccc2ccccc2c1)N1CCN(S(=O)(=O)c2ccccc2[N+](=O)[O-])CC1` [CBK264271], the viability at 28.5 h, 10 µM was found to be 91.8%. Regarding `COc1ccccc1N1C(=O)c2ccc(C(=O)Nc3cc([N+](=O)[O-])ccc3O)cc2C1=O` [CBK264272], the viability at 28.5 h, 10 µM came out at 95.3%.

`CN(C)CCOC(=O)c1ccc(S(=O)(=O)N(C)C)o1` [CBK264273C]: the viability at 28.5 h, 10 µM is 100%.

In the case of `COc1cc(CN2CCN(Cc3cccnc3)CC2)cc(OC)c1O` [CBK264274G], the viability at 28.5 h, 10 µM came to 102%. For `CCOC(=O)C1CCCN(CCC(=O)Nc2cccc(F)c2)C1` (stereo not shown) [CBK264275C], the viability at 28.5 h, 10 µM amounted to 107%.

Regarding `O=C(COc1ccc2ccccc2c1)N1CCN(S(=O)(=O)c2ccc([N+](=O)[O-])cc2)CC1` [CBK264277], the viability at 28.5 h, 10 µM is 98%. Consider `CC(=O)Nc1ccc(S(=O)(=O)N2CCN(C(=O)c3cccnc3)CC2)cc1` [CBK264279], for which the viability at 28.5 h, 10 µM was found to be 96.5%. For the molecule `O=C(CCN1CCc2ccccc2C1)Nc1cccc(F)c1` [CBK264282], the viability at 28.5 h, 10 µM was 103%.

Turning to `O=[N+]([O-])c1ccccc1S(=O)(=O)N1CCN(Cc2cccc(Oc3ccccc3)c2)CC1` [CBK264283], the viability at 28.5 h, 10 µM was 98.9%. Regarding `CCOC(=O)C1CCCN(CCC(=O)Nc2cc(C)cc(C)c2)C1` (stereo not shown) [CBK264284], the viability at 28.5 h, 10 µM came out at 100%.

As to `Cc1ccc(-c2nc(Nc3ccc(F)cc3)sc2CC(=O)O)cc1` [CBK264286], the viability at 28.5 h, 10 µM was determined as 89.4%. For `CCCS(=O)(=O)N1CCN(S(=O)(=O)c2ccc(NC(C)=O)cc2)CC1` [CBK264288], the viability at 28.5 h, 10 µM worked out at 96.6%.

On to `CCS(=O)(=O)N1CCN(S(=O)(=O)c2ccccc2[N+](=O)[O-])CC1` [CBK264289], for which the viability at 28.5 h, 10 µM is 99%. On to `Cc1oc(CSCc2cc(C(=O)O)c(C)o2)cc1C(=O)O` [CBK264291], for which the viability at 28.5 h, 10 µM came out at 90.7%. As for `CC(=O)Nc1ccc(S(=O)(=O)N2CCN(c3ccc(C(F)(F)F)cc3[N+](=O)[O-])CC2)cc1` [CBK264293], the viability at 28.5 h, 10 µM is 93.9%. The same measure, in the same setting: under `O=C(COc1ccc(-c2ccccc2)cc1)N1CCN(S(=O)(=O)c2ccc([N+](=O)[O-])cc2)CC1` [CBK264297] stands 106%.

Take `COc1cc(/C=C2\C(=O)NC(=O)N(c3ccc(O)cc3)C2=O)cc(I)c1O` [CBK264298]: the viability at 28.5 h, 10 µM (bulk resorufin, single well) is 114%.

Usually viability stands for a read-out of living cells in per cent, often relative to untreated cells.
